Assays:
[1] = target: T1, Protein kinase C alpha type (Homo sapiens, UniProt P17252); assay: Displacement of [3H]- PDBu from Protein kinase C alpha C1a domain
[2] = target: T1, Protein kinase C alpha type; assay: Displacement of [3H]- PDBu from Protein kinase C alpha C1b domain
[3] = target: T2, Protein kinase C delta type (Homo sapiens, UniProt Q05655); assay: Displacement of [3H]- PDBu from Protein kinase C delta C1a domain
[4] = target: T3, Protein kinase C eta type (Homo sapiens, UniProt P24723); assay: Displacement of [3H]- PDBu from Protein kinase C eta C1a domain
T3 sequence (P24723 whole entry, the tested form may be a part): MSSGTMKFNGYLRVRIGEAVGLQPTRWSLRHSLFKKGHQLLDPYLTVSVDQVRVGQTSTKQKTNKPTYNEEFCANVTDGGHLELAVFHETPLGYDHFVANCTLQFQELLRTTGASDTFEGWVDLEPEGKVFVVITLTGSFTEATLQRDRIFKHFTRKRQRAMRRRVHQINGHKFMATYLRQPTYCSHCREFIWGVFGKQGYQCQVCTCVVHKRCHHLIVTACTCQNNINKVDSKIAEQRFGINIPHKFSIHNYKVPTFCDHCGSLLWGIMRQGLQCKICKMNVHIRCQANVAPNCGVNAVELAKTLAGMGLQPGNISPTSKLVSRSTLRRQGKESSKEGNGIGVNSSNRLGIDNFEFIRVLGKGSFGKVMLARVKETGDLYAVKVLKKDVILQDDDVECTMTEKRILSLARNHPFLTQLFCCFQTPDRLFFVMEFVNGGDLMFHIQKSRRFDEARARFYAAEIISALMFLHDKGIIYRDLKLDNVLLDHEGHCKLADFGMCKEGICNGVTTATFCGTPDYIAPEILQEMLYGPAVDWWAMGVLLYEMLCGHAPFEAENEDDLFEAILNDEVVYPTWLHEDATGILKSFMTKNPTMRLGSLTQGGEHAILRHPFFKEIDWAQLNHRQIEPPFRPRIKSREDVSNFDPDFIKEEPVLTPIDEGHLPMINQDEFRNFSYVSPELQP

[5] = target: T3, Protein kinase C eta type; assay: Displacement of [3H]- PDBu from Protein kinase C eta C1b domain
[6] = target: T4, Protein kinase C beta type (Homo sapiens, UniProt P05771); assay: Displacement of [3H]- PDBu from Protein kinase C beta C1b domain
T4 sequence (P05771 whole entry, the tested form may be a part): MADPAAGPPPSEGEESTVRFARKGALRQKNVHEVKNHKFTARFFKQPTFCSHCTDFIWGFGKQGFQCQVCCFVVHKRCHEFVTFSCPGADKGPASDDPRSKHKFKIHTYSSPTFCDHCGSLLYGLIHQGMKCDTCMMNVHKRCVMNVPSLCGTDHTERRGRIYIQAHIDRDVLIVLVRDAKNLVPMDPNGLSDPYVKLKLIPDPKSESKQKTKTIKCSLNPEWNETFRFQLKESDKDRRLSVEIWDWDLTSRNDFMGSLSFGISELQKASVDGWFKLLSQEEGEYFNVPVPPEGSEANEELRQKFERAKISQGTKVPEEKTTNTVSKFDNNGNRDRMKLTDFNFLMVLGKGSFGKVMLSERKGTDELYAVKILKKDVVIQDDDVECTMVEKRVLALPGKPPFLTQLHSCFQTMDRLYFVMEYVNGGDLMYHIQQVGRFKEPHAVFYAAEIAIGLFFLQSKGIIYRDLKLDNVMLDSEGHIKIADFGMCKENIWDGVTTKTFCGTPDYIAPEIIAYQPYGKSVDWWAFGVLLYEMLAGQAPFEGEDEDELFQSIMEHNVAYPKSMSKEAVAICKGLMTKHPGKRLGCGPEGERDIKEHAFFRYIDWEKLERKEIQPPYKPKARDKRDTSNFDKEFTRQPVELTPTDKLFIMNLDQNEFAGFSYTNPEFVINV

[7] = target: T4, Protein kinase C beta type; assay: Displacement of [3H]- PDBu from Protein kinase C beta C1a domain
[8] = target: T2, Protein kinase C delta type; assay: Displacement of [3H]- PDBu from Protein kinase C delta C1b domain
[9] = target: Protein kinase C theta type (Homo sapiens, UniProt Q04759); assay: Displacement of [3H]- PDBu from Protein kinase C theta C1b domain
Chain of Protein kinase C theta type (Q04759 whole entry, the tested form may be a part): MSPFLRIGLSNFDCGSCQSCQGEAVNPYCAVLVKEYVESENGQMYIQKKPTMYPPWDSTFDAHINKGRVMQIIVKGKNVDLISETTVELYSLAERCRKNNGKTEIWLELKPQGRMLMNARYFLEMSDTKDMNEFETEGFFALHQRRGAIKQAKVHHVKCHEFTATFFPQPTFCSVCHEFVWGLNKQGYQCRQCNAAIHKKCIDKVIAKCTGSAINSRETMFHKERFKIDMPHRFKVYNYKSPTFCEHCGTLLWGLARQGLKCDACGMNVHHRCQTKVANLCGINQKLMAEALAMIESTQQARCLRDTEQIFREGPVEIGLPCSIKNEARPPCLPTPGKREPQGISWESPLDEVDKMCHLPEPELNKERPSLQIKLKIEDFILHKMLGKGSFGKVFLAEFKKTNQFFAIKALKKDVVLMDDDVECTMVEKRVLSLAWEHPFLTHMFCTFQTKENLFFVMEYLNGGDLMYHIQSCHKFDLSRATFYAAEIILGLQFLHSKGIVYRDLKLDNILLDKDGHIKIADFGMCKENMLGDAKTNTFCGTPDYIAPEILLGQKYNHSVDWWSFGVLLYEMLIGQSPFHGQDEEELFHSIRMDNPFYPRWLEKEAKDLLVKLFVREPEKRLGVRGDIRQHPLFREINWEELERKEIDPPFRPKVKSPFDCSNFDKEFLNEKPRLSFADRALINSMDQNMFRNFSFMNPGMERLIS

[10] = target: T5, Protein kinase C gamma type (Homo sapiens, UniProt P05129); assay: Displacement of [3H]- PDBu from Protein kinase C gamma C1a domain
[11] = target: T5, Protein kinase C gamma type; assay: Displacement of [3H]- PDBu from Protein kinase C gamma C1b domain
[12] = target: T6, Protein kinase C epsilon type (Homo sapiens, UniProt Q02156); assay: Displacement of [3H]- PDBu from Protein kinase C epsilon C1a domain
T6 sequence (Q02156 whole entry): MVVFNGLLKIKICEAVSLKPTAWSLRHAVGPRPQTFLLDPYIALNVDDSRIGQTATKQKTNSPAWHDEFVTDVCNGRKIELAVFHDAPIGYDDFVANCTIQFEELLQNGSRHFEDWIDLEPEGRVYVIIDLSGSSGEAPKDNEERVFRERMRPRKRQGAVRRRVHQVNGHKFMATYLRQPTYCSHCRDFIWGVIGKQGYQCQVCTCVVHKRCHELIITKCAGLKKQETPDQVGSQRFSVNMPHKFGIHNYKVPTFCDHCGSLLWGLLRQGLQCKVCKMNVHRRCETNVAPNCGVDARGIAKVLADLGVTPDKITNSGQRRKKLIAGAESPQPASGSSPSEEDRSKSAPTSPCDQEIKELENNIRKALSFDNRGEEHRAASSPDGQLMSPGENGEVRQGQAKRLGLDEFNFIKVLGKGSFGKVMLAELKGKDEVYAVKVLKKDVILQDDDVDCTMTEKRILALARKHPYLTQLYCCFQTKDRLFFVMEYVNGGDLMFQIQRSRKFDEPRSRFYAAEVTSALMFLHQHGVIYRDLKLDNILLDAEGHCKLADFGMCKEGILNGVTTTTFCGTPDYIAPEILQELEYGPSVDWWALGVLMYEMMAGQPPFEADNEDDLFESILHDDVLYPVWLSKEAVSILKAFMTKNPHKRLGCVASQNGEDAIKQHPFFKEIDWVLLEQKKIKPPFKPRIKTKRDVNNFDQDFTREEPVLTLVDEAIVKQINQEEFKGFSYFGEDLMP

[13] = target: T6, Protein kinase C epsilon type; assay: Displacement of [3H]- PDBu from Protein kinase C epsilon C1b domain

T2 sequence (Q05655 whole entry, the tested form may be a part): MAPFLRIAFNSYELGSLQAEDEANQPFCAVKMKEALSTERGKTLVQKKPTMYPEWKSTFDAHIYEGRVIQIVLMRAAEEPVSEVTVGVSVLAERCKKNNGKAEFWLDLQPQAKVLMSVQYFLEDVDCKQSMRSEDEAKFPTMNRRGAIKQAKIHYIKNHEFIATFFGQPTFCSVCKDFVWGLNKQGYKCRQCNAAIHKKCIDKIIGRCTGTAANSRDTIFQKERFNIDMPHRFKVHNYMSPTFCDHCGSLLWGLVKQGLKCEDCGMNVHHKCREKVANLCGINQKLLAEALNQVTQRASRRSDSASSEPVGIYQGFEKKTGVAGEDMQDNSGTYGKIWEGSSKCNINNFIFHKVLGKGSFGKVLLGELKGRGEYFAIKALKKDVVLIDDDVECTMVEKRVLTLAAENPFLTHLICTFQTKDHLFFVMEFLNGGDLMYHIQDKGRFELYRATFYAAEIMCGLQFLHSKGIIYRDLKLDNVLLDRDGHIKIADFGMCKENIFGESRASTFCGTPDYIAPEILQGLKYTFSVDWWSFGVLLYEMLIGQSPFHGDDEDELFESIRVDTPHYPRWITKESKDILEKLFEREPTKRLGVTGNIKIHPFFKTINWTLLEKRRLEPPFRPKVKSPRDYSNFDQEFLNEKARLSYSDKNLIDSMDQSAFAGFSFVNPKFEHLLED

| Compound | Ki [1] [nM] | Ki [2] [nM] | Ki [3] [nM] | Ki [4] [nM] | Ki [5] [nM] | Ki [6] [nM] | Ki [7] [nM] | Ki [8] [nM] | Ki [9] [nM] | Ki [10] [nM] | Ki [11] [nM] | Ki [12] [nM] | Ki [13] [nM] |
| --- | --- | --- | --- | --- | --- | --- | --- | --- | --- | --- | --- | --- | --- |
| CC(C)[C@H]1C(=S)N[C@H](CO)Cc2c[nH]c3cccc(c23)N1C | 261 | 2140 | 2950 | 2160 | 20.6 | 226 | 180 | 67.5 | 61.6 | 296 | 288 | 3860 | 41.5 |
| CC(C)[C@H]1C(=O)N[C@H](CO)Cc2c[nH]c3cccc(c23)N1C [INDOLACTUM] | 127 | 4000 | 1900 | 3770 | 5.5 | 136 | 173 | 8.3 | 8.7 | 138 | 213 | 4110 | 7.7 |

— ChEMBL document CHEMBL1133311, “Synthesis and PKC isozyme surrogate binding of indothiolactam-V, a new thioamide analogue of tumor promoting indolactam-V” (Bioorg Med Chem Lett, 2000)
